Source: patent publication US11666586B2, “Compositions and methods for treating acne vulgaris” (Dermala, Inc., priority 2016, dated 2023)
Values after ≈ are worked out from the molar mass of the structure shown. Like-named read-outs stand apart in the source and are kept apart here.

Tests used:
P. acnes (ATCC 6919) = assay: Minimum Inhibitory Concentration (MIC) determination, microbroth dilution; assay type: cell-based, Propionibacterium acnes; conditions: API alone, 48 h anaerobic, ≥90% reduction in growth (OD600); for MIC: Cutibacterium acnes, ATCC6919, read-out: individual MIC
Protocol: P. acnes (ATCC 6919) was cultured on Brucella plates supplemented with 0.1 g/L hemin, 0.01 g/L vitamin K, and 5% (v/v) defibrinated sheep's blood at 37° C. under anaerobic conditions using a Gas-Pak (BD). For each assay, an inoculum of P. acnes was prepared by suspending a colony of P. acnes in 5 mL Reinforced Clostridium medium (RCM) and growing at 37° C. and 250 RPM under anaerobic conditions for 30 hours. […] Individual MIC values were determined for each drug according to the microbroth dilution method. […] Media without P. acnes and medium with P. acnes only were used for negative and positive controls, respectively, and contained the highest concentration of solvent used in each drug analysis. Plates were incubated under anaerobic conditions using a Gas-Pak (BD) for 48 hours at 37° C. Following incubation, each well was resuspended by pipetting and the optical density at 600 nm (OD600) was determined on a plate reader.

[1] = Testing of combination products in human subjects with acne; conditions: spot treatment
Excerpt: The Formulation 1 was applied using Acne Treatment Pads one or two times per day.

[2] = system: S. epidermidis (ATCC 12228); assay: Fermentation of prebiotics by S. epidermidis; assay type: cell-based, Staphylococcus epidermidis; conditions: 2% prebiotic, six days anaerobic, compared to PBS control
Protocol: Preparation of Prebiotics: Glycerol, sucrose, β-lactose, and D-(+)-maltose were purchased from Sigma-Aldrich. Stock solutions of each prebiotic (4% w/v) were prepared in water and filtered through a 0.22 μm filter for sterilization.
Preparation of S. epidermidis conditioned media: S. epidermidis (ATCC 12228) was cultured on trypic soy broth (TSB) agar plates at 37° C. For each assay, an inoculum of S. epidermidis was prepared by suspending one colony of S. epidermidis from a TSB agar plate into 7 ml of TSB broth and growing at 37° C., 215 RPM for 16 hours. The overnight culture was subcultured by adding 100 μl of overnight culture to 10 ml of fresh TSB. Once mid-log phase was reached, the cells were pelleted by centrifugation, washed with PBS and resuspended in fresh PBS. In 15 ml culture tubes, 4.9 ml of Rich Broth (20 g/L yeast extract, 6 g/L TSB) was combined with 40 μl 0.5% phenol red indicator, 5 ml of 4% prebiotic (glycerol, sucrose, β-lactose, or D-(+)-maltose) or PBS as a control, and S. epidermidis (10^5 CFU/ml) and placed in an anaerobic Gas-Pak (BD). The cultures were incubated at 37° C., 215 RPM for 6 days. Following fermentation, the cells were pelleted and the supernatants were filtered through a 0.22 μm filter for sterilization.
No change in color occurred in PBS control (a).

P. acnes 6919 = assay: Time-kill assay; assay type: cell-based, Propionibacterium acnes; conditions: DRM1 30 mM or salicylic acid […] mM alone (2× MIC); combination […] + […]; RCM broth with 12% propylene glycol
[3] = system: P. acnes strains RMA#20660 and RMA#20661; assay: MIC against multi-resistant P. acnes strains; assay type: cell-based, Propionibacterium acnes
Protocol: Individual MIC values were determined for each drug according to the microbroth dilution method. Briefly, 2-fold serial dilutions of each drug (50 μl) were added to wells in a 96-well plate followed by 50 μl of the prepared P. acnes inoculum as described in Example 1. Media without P. acnes and medium with P. acnes only were used for negative and positive controls, respectively, and contained the highest concentration of solvent used in each drug analysis. Plates were incubated under anaerobic conditions using a Gas-Pak (BD) for 48 hours at 37° C. Following incubation, each well was resuspended by pipetting and the optical density at 600 nm (OD600) was determined on a plate reader.

biofilm-forming strains = system: biofilm-forming strains
Excerpt: Biofilm formation is an important factor in P. acnes pathogenicity and biofilm is detected in approximately half of hair follicles of acne patients.

P. acnes = conditions: serial passage, 10 cycles of 72 hours, method written in future tense
Excerpt: Resistance development may be measured by two methods: single step for the determination of spontaneous frequency of resistance development and serial passage for the determination of progressive resistance development.

Question: With `O=C(O)CCCCCCCC(=O)O` [Azelaic acid, azelaic acid, reference compound] as the molecule, how does the MIC (P. acnes (ATCC 6919); P. acnes ATCC 6919) read?
Answer: 7.5 mM

Question: Which “individual MIC” value (P. acnes (ATCC 6919); P. acnes 6919) does the source give for `O=C(OOC(=O)c1ccccc1)c1ccccc1` [BPO, benzoyl peroxide, reference compound] here?
Answer: 125 µg/mL

Question: And the MIC (P. acnes (ATCC 6919); P. acnes 6919)?
Answer: 125 µg/mL

Question: And the “hyperpigmentation (dark spot side effect)” value [1]?
Answer: dark spot side effect observed

Question: Which MIC (P. acnes (ATCC 6919); P. acnes 6919) does the source give for `CCC[C@@H]1C[C@@H](C(=O)N[C@@H]([C@H]2O[C@H](SC)[C@H](O)[C@@H](O)[C@H]2O)[C@H](C)Cl)N(C)C1` [Clindamycin, clindamycin, reference compound] here?
Answer: 0.063 µg/mL

Question: For `OC[C@H]1O[C@H](O[C@H]2[C@H](O)[C@@H](O)[C@H](O)O[C@@H]2CO)[C@H](O)[C@@H](O)[C@@H]1O` [D-(+)-maltose], which “acidification of media (phenol red colour) by S. epidermidis fermentation” value (“acidification of media” below) [2] is on record?
Answer: change of color from red to yellow

Question: What does the source list for `O=C(O)CCC(=O)O` [DRM1, succinic acid]?
Answer: individual MIC (P. acnes (ATCC 6919); P. acnes 6919): 1771 µg/mL; individual MIC (P. acnes (ATCC 6919); P. acnes ATCC 6919): 15 mM; MIC (P. acnes (ATCC 6919); P. acnes 6919): 1770 µg/mL; MIC (P. acnes (ATCC 6919); P. acnes ATCC 6919): 15 mM; growth on plate after 15 minutes (P. acnes 6919): growth was evident; MIC ([3]; Cutibacterium acnes, each of RMA#20660 and RMA#20661 (resistant to erythromycin, clindamycin, minocycline, doxycycline), ≥90% decrease in growth, OD600): 15 mM (≈ 1770 µg/mL); bactericidal activity against antibiotic-resistant P. acnes strains ([3]; RMA#20660 and RMA#20661): bactericidal; concentration preventing biofilm formation (biofilm-forming strains): ≥ 7.5 mM; spontaneous or progressive resistance development (P. acnes): did not develop spontaneous or progressive resistance

Question: For `O=C(O)c1ccccn1` [Picolinic acid, picolinic acid], which MIC (P. acnes (ATCC 6919); P. acnes ATCC 6919) is on record?
Answer: 1.88 mM

Question: With `O=C(O)c1ccccc1O` [Salicylic Acid, salicylic acid, reference compound] as the molecule, how does the MIC (P. acnes (ATCC 6919); P. acnes ATCC 6919) read?
Answer: 7.5 mM

Question: What about the “growth on plate after 15 minutes” value (P. acnes 6919) of the same molecule?
Answer: growth was evident

Question: For `OCC(O)CO` [glycerol], which “acidification of media” value [2] is on record?
Answer: change of color from red to yellow

Question: For `OC[C@H]1O[C@@](CO)(O[C@H]2O[C@H](CO)[C@@H](O)[C@H](O)[C@H]2O)[C@@H](O)[C@@H]1O` [sucrose], which “acidification of media” value [2] is on record?
Answer: change of color from red to yellow

Question: For `OC[C@H]1O[C@@H](O[C@H]2[C@H](O)[C@@H](O)[C@H](O)O[C@@H]2CO)[C@H](O)[C@@H](O)[C@H]1O` [β-lactose], which “acidification of media” value [2] is on record?
Answer: change of color from red to yellow
